The values below come from article PMC6934700, “Structure-Guided Design of a Fluorescent Probe for the Visualization of FtsZ in Clinically Important Gram-Positive and Gram-Negative Bacterial Pathogens” (Scientific Reports, 2019).

Converted amounts (≈) assume the structure as drawn. Read-outs that look alike come from different tables or passages of the source.

Assay [1] concerns FtsZ in S. pyogenes ATCC 19615 cells. Kind of assay: FtsZ visualization by fluorescence microscopy in live cells. To be noted: 1 µg/mL for 5 minutes. Type of assay: cell-based, Streptococcus pyogenes. The protocol: (§1) All differential interference contrast (DIC) and fluorescence microscopy experiments were conducted using an Olympus BX50 microscope equipped with an X-cite Exacte 200 W mercury lamp, a 100× Olympus UPLSAPO oil immersion objective (1.40 aperture), as well as both Chroma ET-EGFP (FITC/Cy2) and ET mCherry, Texas Red filters. Images were captured using a QImaging Retiga R3 charge-coupled device (CCD) camera and the Ocular-Version 2.0 software package (QImaging).
(§2) For visualizing FtsZ in Gram-positive bacteria using BOFP, the bacterial cells were grown to log-phase in media suitable for each individual pathogen. Specifically, S. aureus NRS705 (MRSA) was grown in tryptic soy broth (TSB), E. faecalis ATCC 29212 and E. faecium ATCC 19434 were grown in lactobacilli MRS broth, S. agalactiae ATCC 12386 and S. pneumoniae ATCC 49619 were grown in TH broth, and S. pyogenes ATCC 19615 was grown in CAMH broth supplemented with 3% (v/v) LHB. For each Gram-positive bacterial strain, a total of 1 mL of cell culture was centrifuged at 15,000 × g for 1 minute and washed 2–3 times with 1 mL of PBS. After the final wash, the pelleted cells were resuspended in 500 µL of PBS containing 1 µg/mL of BOFP and incubated in the dark for 5 minutes at room temperature. The cells were then centrifuged at 15,000 × g for 1 minute, washed twice with 1 mL of PBS, and subsequently resuspended in 200 µL of PBS. […]

Assay [2] deals with FtsZ in S. agalactiae ATCC 12386 cells. Described as above. The format is cell-based, Streptococcus agalactiae. To be noted: 1 µg/mL for 5 minutes. The protocol:
as §1, §2

The next assay deals with S. aureus NRS705 (MRSA). Kind of assay: MIC assay by broth microdilution. Type of assay: cell-based, Staphylococcus aureus. To be noted: Staphylococcus aureus; MRSA NRS705; TH broth; ≥90% growth inhibition after 18-24 hours. As to the method: MIC assays of 1, 3, and BOFP were conducted by standard broth microdilution in TH media. Briefly, log-phase S. aureus NRS705 (MRSA) cells were added to 96-well microtiter plates (at 5 × 10^5 CFU/mL) containing 2-fold serial dilutions of each test compound in 0.1 mL of TH broth, with each compound concentration being present in duplicate. The MIC is defined as the lowest compound concentration at which growth is ≥90% inhibited after 18-24 hours of aerobic growth.

Another assay addresses S. pyogenes (SpyFtsZ) (Streptococcus pyogenes, UniProt Q99YV7). Kind of assay: Fluorescence anisotropy binding of BOFP to SpyFtsZ. To be noted: for Kd: 50 mM Tris-HCl (pH 7.6), 50 mM KCl, 0.1 µM BOFP. As to the method: (§3) Fluorescence anisotropy experiments were performed using an AVIV model ATF105 spectrofluorometer at 15, 25, or 37 °C. In these experiments, bandwidths were set to 4 nm in both the excitation and emission directions, with the excitation and emission wavelengths being set at 488 nm and 510 nm, respectively. BOFP (0.1 µM) was titrated with increasing concentrations (ranging from 0 to 12 µM) of FtsZ in 120 µL of buffer containing 50 mM Tris-HCl (pH 7.6) and 50 mM KCl. After each protein addition, the samples were equilibrated for 3 minutes, whereupon the fluorescence anisotropy was measured.
(§4) In this equation, r0 is the anisotropy of the protein-free compound, r∞ is the anisotropy of the compound in the presence of an infinite concentration of FtsZ, [C]tot is the total concentration of the compound, and [P]tot is the total concentration of protein with each addition. These analyses yielded the equilibrium dissociation constant (Kd) for each binding reaction.
(§5) The binding free energy (ΔG) at temperature T was derived from the corresponding Kd value determined at T using the following relationship:2 ΔG=−RTln(1/Kd)
(§6) The binding enthalpy (ΔH) and entropy (ΔS) were derived from linear fits of the ln(1/Kd) vs. 1/T plots shown in Figs. 3f and 5e using the following relationship:3 ln(1/Kd)=−ΔH/R(1/T)+ΔS/R
(§7) In comparative control experiments, the anisotropy of 0.1 µM BODIPY FL-COOH or BOFP alone or in the presence of SaFtsZ (10 µM), SpyFtsZ (10 µM), KpFtsZ (2 µM), or PaFtsZ (2 µM) was measured at 37 °C in the same buffer described above.
(In general: In fluorescence polarisation assays a small probe gives low polarisation when free and higher when bound to something large.)

Another assay concerns the target T1, S. aureus (SaFtsZ) (Staphylococcus aureus, UniProt P0A031).
T1 construct: 6xHis (C); made in house; host or cells: E. coli BLR (DE3), pET-22b(+)
T1 sequence (P0A031 1-390): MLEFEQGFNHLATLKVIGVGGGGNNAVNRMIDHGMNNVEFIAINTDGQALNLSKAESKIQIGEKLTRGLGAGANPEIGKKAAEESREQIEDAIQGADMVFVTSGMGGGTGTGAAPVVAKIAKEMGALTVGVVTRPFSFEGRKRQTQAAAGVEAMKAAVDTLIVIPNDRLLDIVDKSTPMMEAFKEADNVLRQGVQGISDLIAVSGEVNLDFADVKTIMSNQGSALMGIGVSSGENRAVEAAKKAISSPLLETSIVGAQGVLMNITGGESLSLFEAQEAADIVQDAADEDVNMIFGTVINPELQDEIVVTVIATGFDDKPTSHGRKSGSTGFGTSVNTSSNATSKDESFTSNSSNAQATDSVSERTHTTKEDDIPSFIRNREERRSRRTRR
The assay can be described thus: biochemical. The format is binding. The protocol: as §3, §4, §5, §6
The impact of guanosine nucleotide and magnesium on the binding of BOFP to SaFtsZ was assessed at 37 °C in the same buffer described above. In these studies, the anisotropy of 0.1 µM BOFP alone or in the presence of 10 µM SaFtsZ was measured, with the latter also being measured in the presence of 0.1 mM GMPCPP (a non-hydrolyzable GTP analog), 10 mM MgCl2, or both.
as §7

[3] abbreviates: calculated at T = 310 K (37 °C) from Kd.
The mark [4] stands for this setting: from linear fit of ln(1/Kd) vs. 1/T.

Sequence of S. pyogenes (SpyFtsZ) (Q99YV7 entry or part of it): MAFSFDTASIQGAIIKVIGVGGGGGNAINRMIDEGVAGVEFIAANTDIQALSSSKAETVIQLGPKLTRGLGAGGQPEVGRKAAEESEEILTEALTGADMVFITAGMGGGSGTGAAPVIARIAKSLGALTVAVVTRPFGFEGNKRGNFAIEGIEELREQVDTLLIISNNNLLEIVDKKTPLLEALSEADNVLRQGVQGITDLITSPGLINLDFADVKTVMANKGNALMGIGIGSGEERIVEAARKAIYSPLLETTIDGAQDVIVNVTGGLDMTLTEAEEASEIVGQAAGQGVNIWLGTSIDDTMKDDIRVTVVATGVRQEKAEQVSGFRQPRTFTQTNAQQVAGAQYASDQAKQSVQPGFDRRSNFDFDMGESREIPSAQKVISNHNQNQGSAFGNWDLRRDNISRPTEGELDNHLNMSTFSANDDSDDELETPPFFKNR

What is called MIC is the smallest concentration in the dilution series that meets the test's criterion for growth inhibition. Low values mean greater potency, high ones weaker potency. One may read the Kd as a measure of binding affinity in units of concentration. In the case of `CC1=CC(C)=[N+]2C1=Cc1ccc(CCC(=O)OCC(Oc3ccc(F)c(C(N)=O)c3F)c3nc(-c4ccc(C(F)(F)F)cc4)c(Br)o3)n1[B-]2(F)F` (centres unmarked) [BOFP], the “Fluorescence staining / FtsZ labeling in live cells” value in assay [1] and in assay [2] was “bright bands of fluorescence staining are clearly visible at midcell” throughout. In addition, inhibition of growth against S. aureus NRS705 (MRSA) (MIC) required 1 mg/L (≈ 1.28 µM). Also, the dissociation constant (Kd) at S. pyogenes (SpyFtsZ) (15 °C, read-out: Kd - 15 °C) was found to be 0.91 ± 0.06 µM; on S. pyogenes (SpyFtsZ) (25 °C, read-out: Kd - 25 °C) it was 1.31 ± 0.08 µM; at S. pyogenes (SpyFtsZ) (37 °C, read-out: Kd - 37 °C) it was 1.55 ± 0.08 µM; at S. aureus (SaFtsZ) (15 °C, 50 mM Tris-HCl (pH 7.6), 50 mM KCl, 0.1 µM BOFP, read-out: Kd - 15 °C) it was 0.88 ± 0.08 µM; at S. aureus (SaFtsZ) (25 °C, 50 mM Tris-HCl (pH 7.6), 50 mM KCl, 0.1 µM BOFP, read-out: Kd - 25 °C) it was 1.66 ± 0.12 µM; at S. aureus (SaFtsZ) (37 °C, 50 mM Tris-HCl (pH 7.6), 50 mM KCl, 0.1 µM BOFP, read-out: Kd - 37 °C), 3.14 ± 0.13 µM. Besides, the Kd on S. aureus (SaFtsZ) (range over 15 to 37 °C, read-out: Kd range) was 0.9 to 3.1 µM. Besides, the ΔG on S. pyogenes (SpyFtsZ) (setting [3]) is -34.3 ± 0.42 kJ/mol; at S. aureus (SaFtsZ) (setting [3]), -32.6 ± 0.42 kJ/mol. Moreover, the ΔH on S. pyogenes (SpyFtsZ) (setting [4]) is -18 ± 4.6 kJ/mol; on S. aureus (SaFtsZ) (setting [4]) it was -42.7 ± 1.3 kJ/mol. Also, the “Effect of both GMPCPP and MgCl2 on anisotropy of SaFtsZ-bound BOFP” value on S. aureus (SaFtsZ) (0.1 µM BOFP, 10 µM SaFtsZ, 0.1 mM GMPCPP and 10 mM MgCl2, 37 °C) is given as “modest increase in the anisotropy”. Besides, at S. aureus (SaFtsZ) (0.1 µM BOFP, 10 µM SaFtsZ, 0.1 mM GMPCPP or 10 mM MgCl2, 37 °C), the “Effect of GMPCPP alone or MgCl2 alone on anisotropy of SaFtsZ-bound BOFP” value is “neither GMPCPP alone (at 0.1 mM) nor MgCl2 alone (at 10 mM) has a significant effect”. This molecule had a ΔS at S. aureus (SaFtsZ) (setting [4]) of −7.8 ± 1.0 cal/mol•K.
